Measurements published in ChEMBL document CHEMBL5050844 (2019).

Key:
Type in all cases: functional, T cell line
[1] = Induction of anti-CD3 antibodies-stimulated human T cell activation at 8 uM assessed fold increase in CD25 expression measured by ELISA assay; further: reference of the scale not given here
[2] = Induction of anti-CD3/CD28 antibodies-stimulated human T cell activation at 1 uM assessed fold increase in CD25 expression measured by ELISA assay
[3] = Induction of anti-CD3/CD28 antibodies-stimulated human T cell activation at 0.3 uM assessed fold increase in IL-2 secretion measured by ELISA assay
[4] = Induction of anti-CD3/CD28 antibodies-stimulated human T cell activation at 4 uM assessed fold increase in IL-2 secretion measured by ELISA assay
[5] = Induction of anti-CD3 antibodies-stimulated human T cell activation at 1 uM assessed fold increase in CD25 expression measured by ELISA assay; further: reference of the scale not given here
[6] = Induction of anti-CD3/CD28 antibodies-stimulated human T cell activation at 1 uM assessed fold increase in IL-2 secretion measured by ELISA assay
[7] = Induction of anti-CD3 antibodies-stimulated human T cell activation at 8 uM assessed fold increase in IL-2 secretion measured by ELISA assay; further: reference of the scale not given here
[8] = Induction of anti-CD3 antibodies-stimulated human T cell activation at 1 uM assessed fold increase in IL-2 secretion measured by ELISA assay; further: reference of the scale not given here
[9] = Induction of anti-CD3/CD28 antibodies-stimulated human T cell activation at 4 uM assessed fold increase in CD25 expression measured by ELISA assay
[10] = Induction of anti-CD3/CD28 antibodies-stimulated human T cell activation at 0.3 uM assessed fold increase in CD25 expression measured by ELISA assay

Row | Compound | fold change (FC) [1] | fold change (FC) [2] | fold change (FC) [3] | fold change (FC) [4] | fold change (FC) [5] | fold change (FC) [6] | fold change (FC) [7] | fold change (FC) [8] | fold change (FC) [9] | fold change (FC) [10]
1 | Cn1cnnc1C[C@H](c1cccc(N2Cc3c(cccc3C(F)(F)F)C2=O)c1)C(F)(F)F | 0.801 | 1.01 | 1.01 | 1.01 | 0.601 | 1.01 | 0.101 | 0.051 | 1.01 | 1.01
2 | Cc1ccc(C(=O)Nc2cccc([C@H](C)Cc3nnc[nH]3)c2)nc1C1CC1 | <=0.6 | 1.51 | 1.01 | 1.01 | <=0.6 | 1.01 | <=0.05 | <=0.05 | >=1.76 | 1.51
3 | Cc1cc(C)nc(C(=O)Nc2cccc([C@H](C)Sc3nncn3C)c2)c1 | 0.801 | 1.01 | 2.51 | >=7.5 | <=0.6 | 5 | <=0.05 | <=0.05 | 1.01 | 1.01
4 | C[C@H](Cc1nncn1C)c1cccc(NC(=O)c2cn3ccnc3cn2)c1 | 0.801 | 1.01 | 1.01 | 1.01 | 0.601 | 1.01 | 0.101 | 0.051 | 1.01 | <=1
5 | CC(Cc1nncn1C)c1cc(C2CCC2)cc(N2Cc3c(cccc3C(F)(F)F)C2=O)c1 (stereo not given) | 0.801 | 1.01 | 1.01 | 1.01 | 0.601 | 1.01 | 0.051 | 0.051 | 1.01 | 1.01
6 | COc1cc(C(=O)Nc2cccc([C@H](C)Sc3nncn3C)c2)nc(C(F)(F)F)c1 | 0.801 | 1.51 | 2.51 | 5 | 0.801 | 2.51 | >=0.201 | 0.051 | >=1.76 | 1.01
7 | Cc1cc(C(=O)Nc2cccc([C@H](C)Sc3nncn3C)c2)nc2ccccc12 | 0.801 | 1.01 | 1.01 | 2.51 | 0.601 | 1.01 | 0.101 | 0.051 | 1.01 | 1.01
8 | Cn1cnnc1[C@@H]1C[C@@H]1c1cccc(N2Cc3c(cc(C#N)cc3C(F)(F)F)C2=O)c1 | 0.801 | 1.01 | 1.01 | 2.51 | 0.601 | 1.01 | 0.101 | <=0.05 | 1.01 | 1.01
9 | Cn1cnnc1[C@H](F)[C@@](C)(F)c1cccc(N2Cc3c(cc(C4CC4)cc3C(F)(F)F)C2=O)c1 (single isomer, unassigned; 482) | 0.801 | 1.01 | <=1 | 1.01 | 0.601 | 1.01 | 0.051 | 0.051 | 1.01 | 1.01
10 | C[C@H](Sc1nncn1C)c1cccc(NC(=O)c2cc(C(F)(F)F)cc(C(F)(F)F)n2)c1 | 0.601 | <=1 | <=1 | 1.01 | <=0.6 | <=1 | <=0.05 | <=0.05 | 1.01 | <=1
11 | C[C@H](Sc1nncn1C)c1ccnc(NC(=O)c2cc(Cl)cc(C(F)(F)F)n2)c1 | 0.601 | 1.01 | 1.01 | <=1 | <=0.6 | 1.01 | <=0.05 | <=0.05 | <=1 | 1.01
12 | Cc1conc1C[C@@H](C)c1cccc(NC(=O)c2ccnc(C(F)(F)F)n2)c1 | >=1.001 | 1.01 | 1.01 | 2.51 | 0.801 | 1.01 | 0.101 | 0.051 | 1.01 | 1.01
13 | C[C@H](Sc1nncn1C)c1cccc(NC(=O)c2cc(C(=O)N3CC(O)C3)ccn2)c1 | 0.601 | <=1 | <=1 | <=1 | <=0.6 | <=1 | <=0.05 | <=0.05 | <=1 | <=1
14 | C[C@H](Cc1nncn1C)c1cccc(NC(=O)c2[nH]nc3c2CCCC3)c1 | 0.801 | 1.01 | 1.01 | 1.01 | 0.601 | 1.01 | 0.051 | 0.051 | 1.01 | 1.01
15 | C[C@H](Sc1nncn1C)c1cccc(NC(=O)c2cc(C(F)(F)F)ccn2)c1 | >=1.001 | 1.01 | <=1 | 1.01 | 0.601 | 1.01 | 0.101 | <=0.05 | 1.01 | 1.01
16 | Cn1cnnc1C(F)(F)[C@@](C)(F)c1cccc(N2Cc3c(cc(CN4CC[C@H](F)C4)cc3C(F)(F)F)C2=O)c1 | 0.801 | <=1 | <=1 | 1.01 | 0.601 | <=1 | 0.051 | 0.051 | 1.01 | <=1
17 | Cn1cnnc1[C@H]1CC[C@H]1c1cccc(N2Cc3c(cccc3C(F)(F)F)C2=O)c1 (racemic) | <=0.6 | <=1 | <=1 | 1.01 | <=0.6 | 1.01 | 0.101 | <=0.05 | 1.01 | <=1
18 | C[C@H](Sc1nncn1C)c1cccc(NC(=O)c2cccc(C(C)(F)F)n2)c1 | >=1.001 | 1.51 | <=1 | 2.51 | 0.801 | <=1 | 0.151 | <=0.05 | >=1.76 | 1.01
19 | C[C@H](Cc1nncn1C)c1cccc(NC(=O)c2cccc(C(F)(F)CO)n2)c1 | <=0.6 | 1.31 | <=1 | <=1 | <=0.6 | <=1 | 0.051 | <=0.05 | >=1.76 | 1.01
20 | C[C@H](Sc1nnc[nH]1)c1cccc(NC(=O)c2cc3ccccc3cn2)c1 | <=0.6 | <=1 | 1.01 | 1.01 | <=0.6 | 1.01 | 0.051 | 0.051 | <=1 | <=1
21 | C[C@H](Sc1nncn1C)c1cccc(NC(=O)c2cc(C3(O)COC3)cc(C(F)(F)F)n2)c1 | 0.601 | 1.01 | <=1 | <=1 | <=0.6 | <=1 | <=0.05 | <=0.05 | 1.01 | <=1
22 | CC(Sc1nncn1C)c1cc(F)cc(N2Cc3c(cccc3C(F)(F)F)C2=O)c1 (stereo not given) | 0.601 | <=1 | 1.01 | 1.01 | 0.801 | 1.01 | 0.051 | <=0.05 | 1.01 | <=1
